For data set [1], the target named is T1, PI3Kα (Homo sapiens, UniProt P42336).
T1 construct: His tag (pFastbac HTb vector) (N); FLAG; made in house; host or cells: Sf21 insect cells (baculovirus)
Kind of data set: Biochemical assay using 200 μM ATP, Alpha.
Description: PI3Kδ catalyzes a phosphotransfer from γ-[^32P]ATP to PIP2/PS liposomes at the D3′ position of the PIP2 lipid inositol ring. This reaction is MgCl2 dependent and is quenched in high molarity potassium phosphate buffer pH 8.0 containing 30 mM EDTA. […] The reaction products (and all unlabelled products) are transferred to a 96-well, prewetted PVDF filter plate, filtered, and washed in high molarity potassium phosphate. Scintillant is added to the dried wells and the incorporated radioactivity is quantitated.
This dilution established a final concentration of 200 μM ATP in the reaction volume. The reaction was stopped with 150 μL quench buffer (1.0 M potassium phosphate pH 8.0, 30 mM EDTA). A portion of the quenched solution (180 μL) was then transferred to a PVDF filter plate (Millipore # MAIP NOB prewetted with sequential 200 μL washes of 100% methanol, water, and finally 1.0 M potassium phosphate pH 8.0 wash buffer).
The PVDF filter plate was aspirated under moderate vacuum (2-5 mm Hg), washed with 5×200 μL of wash buffer, and then dried by aspiration. The filter was subsequently blotted, allowed to air dry completely, and inserted into a Wallac counting cassette with 50 μL of Ecoscint scintillation cocktail added per well.
Subsequent selectivity assays were done similarly using the same 3× substrate stocks except they contained 0.05 mCi/mL γ[^32P]ATP and 3 mM PIP2. Subsequent selectivity assays also used the same 3× enzyme stocks, except they now contained 3 nM of any given PI3K isoform.
For all selectivity assays, the test compounds were weighed out and dissolved into 10-50 mM stocks in 100% DMSO (depending on their respective solubilities) and stored at −20° C. […] From these dilutions, 20 μL was added into the assay wells alongside water blanks used for the enzyme (positive) control and the no enzyme (background) control.
This selectivity protocol is identical to that described above, except the 3× stock ATP concentration was 600 μM.

Data set [2] relates to Murine splenocytes (Balb/c). Briefly: B cell proliferation in response to cell surface IgM stimulation. It is filed as cell-based. To be noted: Mus musculus, Splenocyte; stimulated B cell proliferation; read-out: Mouse BCR Stim (EC50). The procedure: In the above experiment, the B cells were stimulated using PANSORBIN®. The effect of D-000 on B cell proliferation response when they were stimulated through their cell surface IgM using anti-IgM antibody also was measured. Murine splenocytes (Balb/c) were plated into 96-well microtiter plates at 2×10^5 cells per well in 10% FBS/RPMI. Appropriate dilutions of test inhibitor in complete medium were added to the cells and the plates were incubated for 30-60 minutes prior to the addition of stimulus. Following the preincubation with test inhibitor an F(ab′)2 preparation of goat antibody specific for the μ-chain of mouse IgM was added to the wells at a final concentration of 25 μg/mL. The plates were incubated at 37° C. for 3 days and 1 μCi of [^3H]-thymidine was added to each well for the final four hours of culture. The plates were harvested onto fiber filters washed and the incorporation of radiolabel was determined using a beta counter (Matrix 96, Packard Instrument Co., Downers Grove, Ill.) and expressed as counts per minute (CPM).
(§1) Using the methods described in Examples 3-5, above, compounds of the invention were tested for inhibitory activity and potency in assays of stimulated B and T cell proliferation, neutrophil (PMN) migration, and neutrophil (PMN) elastase release. In Table 4, the values shown are effective concentrations of the compound (EC50; μM). Where no value is given, no assay was performed.

The target in data set [3] is T2, PI3Kδ (Homo sapiens, UniProt O00329, S253N). Briefly: Biochemical assay of PI3K potency and selectivity using 20 μM ATP, Delta. To be noted: 20 μM ATP; read-out: Delta IC50. Further details: His tag (pFastbac HTb vector) (N); FLAG; made in house; host or cells: Sf21 insect cells (baculovirus). From the text: (§2) Recombinant PI3K heterodimeric complexes consisting of a p110 catalytic subunit and a p85 regulatory subunit were overexpressed using the BAC-TO-BAC® HT baculovirus expression system (GIBCO/BRL), and then purified for use in biochemical assays. The four Class I PI 3-kinases were cloned into baculovirus vectors as follows: […]

Data set [4] deals with T2, PI3Kδ. Kind of data set: Biochemical assay using 200 μM ATP, Delta.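 Note: radiometric filter-binding assay: PI3Kδ transfers ³²P from γ-[³²P]ATP onto PIP2/PS liposomes, counted by scintillation, enzyme-only wells as positive control, no-enzyme wells as background.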
For data set [5], the target named is T3, PI3Kβ (Homo sapiens, UniProt P42338).
T3 construct: His tag (pFastbac HTa vector) (N); FLAG (N); made in house; host or cells: Sf21 insect cells (baculovirus)
Briefly: Biochemical assay using 200 μM ATP, Beta.

The next data set concerns the target T4, PI3Kγ (Homo sapiens, UniProt P48736).
T4 construct: His tag (pFastbac HTb vector) (N); FLAG (N); made in house; host or cells: Sf21 insect cells (baculovirus)
Briefly: Biochemical assay using 200 μM ATP, Gamma.

Data set [6] has as its target T3, PI3Kβ. Briefly: Biochemical assay of PI3K potency and selectivity using 20 μM ATP, Beta. To be noted: 20 μM ATP; for Beta/Delta Ratio: ratio of IC50 values, > = hypothetical ratio with 100 μM substituted for the missing IC50; for remaining activity at 100 µM: read-out: Beta: percent activity remaining at 100 μM, 100 μM compound did not inhibit by at least 50%; for IC50: read-out: Beta IC50. The procedure: Recombinant PI3K heterodimeric complexes consisting of a p110 catalytic subunit and a p85 regulatory subunit were overexpressed using the BAC-TO-BAC® HT baculovirus expression system (GIBCO/BRL), and then purified for use in biochemical assays. The four Class I PI 3-kinases were cloned into baculovirus vectors as follows:
The 3× substrate for the HTS contained 0.6 mM Na2ATP, 0.10 mCi/mL γ-[^32P]ATP (NEN, Pittsburgh, Pa.), 6 μM PIP2/PS liposomes (Avanti Polar Lipids, Inc., […].), in 20 mM HEPES, pH 7.4.

For data set [7], the target named is T1, PI3Kα. Kind of data set: Biochemical assay of PI3K potency and selectivity using 20 μM ATP, Alpha. To be noted: for Alpha/Delta Ratio / IC50: 20 μM ATP; for Alpha/Delta Ratio: ratio of IC50 values, > = hypothetical ratio with 100 μM substituted for the missing IC50; for remaining activity at 100 µM: read-out: percent activity remaining at 100 μM, 20 μM ATP, 100 μM compound did not inhibit by at least 50%; for IC50: read-out: Alpha IC50.
Description: as §2

Another data set deals with human neutrophils. Kind of data set: Elastase exocytosis from neutrophils (fMLP-induced). The format is cell-based. The note with it: neutrophil (PMN) elastase release. The procedure: Aliquots (8 mL) of heparinized blood from healthy volunteers were layered on 3 mL cushions of 7.3% FICOLL® (Sigma, St. Louis, Mo.) and 15.4% HYPAQUE® (Sigma) and centrifuged at 900 rpm for 30 min at room temperature in a table top centrifuge (Beckman). The neutrophil-rich band just above the FICOLL®-HYPAQUE® cushion was collected and washed with Hanks' balanced salt solution (HBSS) containing 0.1% gelatin. Residual erythrocytes were removed by hypotonic lysis with 0.2% NaCl. The neutrophil preparation was washed twice with HBSS containing 0.1% gelatin and used immediately.
In addition to superoxide generation, activated neutrophils also respond by releasing several proteases that are responsible for the destruction of tissues and cartilage during inflammation. As an indication of protease release, the effect of D-000 on elastase exocytosis was measured. Elastase exocytosis was quantitated by modification of the procedure described by Ossanna et al. (J Clin Invest, 77:1939-1951 (1986)), as follows. Purified human neutrophils (0.2×10^6) (treated with either DMSO or a serial dilution of D-000 in DMSO) were stimulated with fMLP in PBS containing 0.01 mg/mL cytochalasin B, 1.0 μM sodium azide (NaN3), 5 μg/mL L-methionine and 1 μM fMLP for 90 min at 37° C. in a 96-well plate. At the end of the incubation period, the plate was centrifuged for 5 min at 1000 rpm, and 90 μL of the supernatant was transferred to 10 μL of 10 mM solution of an elastase substrate peptide, MeO-suc-Ala-Ala-Pro-Val-pNA, wherein MeO-suc=methoxy-succinyl; pNA=p-nitroanilide (Calbiochem, San Diego, Calif.). Absorbance at 410 nm was monitored for 2 hr in a 96-well plate reader. To measure the relative amounts of elastase excytosed, all absorbance values were normalized to the values without any inhibitor. […] Inhibition was half-maximal at a concentration of about 2-3 μM D-000.
as §1

T2 sequence (O00329 whole entry S253N): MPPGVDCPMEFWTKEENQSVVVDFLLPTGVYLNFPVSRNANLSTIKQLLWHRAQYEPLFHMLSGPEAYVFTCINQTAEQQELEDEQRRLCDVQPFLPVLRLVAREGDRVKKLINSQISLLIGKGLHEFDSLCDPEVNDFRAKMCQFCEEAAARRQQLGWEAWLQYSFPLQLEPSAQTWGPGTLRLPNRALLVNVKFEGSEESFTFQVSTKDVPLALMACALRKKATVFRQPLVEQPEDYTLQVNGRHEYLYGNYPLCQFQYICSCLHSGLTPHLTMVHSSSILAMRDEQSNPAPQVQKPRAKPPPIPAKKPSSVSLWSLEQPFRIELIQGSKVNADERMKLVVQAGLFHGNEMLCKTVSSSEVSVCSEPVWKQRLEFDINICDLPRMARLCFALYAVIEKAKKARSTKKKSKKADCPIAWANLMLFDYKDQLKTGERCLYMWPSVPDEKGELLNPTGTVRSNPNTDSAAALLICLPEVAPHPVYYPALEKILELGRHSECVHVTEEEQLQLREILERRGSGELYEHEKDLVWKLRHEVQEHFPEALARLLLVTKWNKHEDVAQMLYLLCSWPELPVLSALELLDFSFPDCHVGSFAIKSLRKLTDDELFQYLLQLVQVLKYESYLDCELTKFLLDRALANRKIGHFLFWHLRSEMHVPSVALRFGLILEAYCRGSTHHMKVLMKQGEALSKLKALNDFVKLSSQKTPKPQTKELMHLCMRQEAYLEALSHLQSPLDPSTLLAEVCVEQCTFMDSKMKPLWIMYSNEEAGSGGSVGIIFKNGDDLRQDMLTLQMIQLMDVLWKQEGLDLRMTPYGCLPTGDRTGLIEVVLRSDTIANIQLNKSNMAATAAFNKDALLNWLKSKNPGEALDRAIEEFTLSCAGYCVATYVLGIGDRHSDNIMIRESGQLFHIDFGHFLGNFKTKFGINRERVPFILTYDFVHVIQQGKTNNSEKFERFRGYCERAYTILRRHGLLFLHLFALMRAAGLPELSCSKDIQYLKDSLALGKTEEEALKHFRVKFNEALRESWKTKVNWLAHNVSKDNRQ
T2 sequence (P27986 whole entry partner): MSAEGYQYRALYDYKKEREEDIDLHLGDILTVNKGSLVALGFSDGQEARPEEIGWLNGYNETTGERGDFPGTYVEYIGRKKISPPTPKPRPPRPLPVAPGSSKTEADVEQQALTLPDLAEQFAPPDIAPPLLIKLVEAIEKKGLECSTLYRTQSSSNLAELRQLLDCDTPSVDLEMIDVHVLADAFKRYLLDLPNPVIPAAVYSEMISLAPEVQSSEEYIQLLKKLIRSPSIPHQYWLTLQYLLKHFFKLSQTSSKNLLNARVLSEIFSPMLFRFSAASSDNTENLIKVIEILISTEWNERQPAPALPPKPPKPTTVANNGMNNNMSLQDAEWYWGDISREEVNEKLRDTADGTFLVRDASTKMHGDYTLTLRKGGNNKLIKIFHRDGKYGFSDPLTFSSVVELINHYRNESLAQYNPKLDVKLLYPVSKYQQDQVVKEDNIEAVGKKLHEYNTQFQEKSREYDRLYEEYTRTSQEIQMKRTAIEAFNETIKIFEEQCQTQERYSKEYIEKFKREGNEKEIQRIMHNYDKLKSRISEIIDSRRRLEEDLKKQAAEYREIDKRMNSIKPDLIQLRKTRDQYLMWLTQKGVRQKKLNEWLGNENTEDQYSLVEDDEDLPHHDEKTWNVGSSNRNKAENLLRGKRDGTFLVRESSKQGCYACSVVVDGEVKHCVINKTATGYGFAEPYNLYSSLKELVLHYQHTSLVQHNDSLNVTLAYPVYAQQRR
T3 sequence (P42338 whole entry): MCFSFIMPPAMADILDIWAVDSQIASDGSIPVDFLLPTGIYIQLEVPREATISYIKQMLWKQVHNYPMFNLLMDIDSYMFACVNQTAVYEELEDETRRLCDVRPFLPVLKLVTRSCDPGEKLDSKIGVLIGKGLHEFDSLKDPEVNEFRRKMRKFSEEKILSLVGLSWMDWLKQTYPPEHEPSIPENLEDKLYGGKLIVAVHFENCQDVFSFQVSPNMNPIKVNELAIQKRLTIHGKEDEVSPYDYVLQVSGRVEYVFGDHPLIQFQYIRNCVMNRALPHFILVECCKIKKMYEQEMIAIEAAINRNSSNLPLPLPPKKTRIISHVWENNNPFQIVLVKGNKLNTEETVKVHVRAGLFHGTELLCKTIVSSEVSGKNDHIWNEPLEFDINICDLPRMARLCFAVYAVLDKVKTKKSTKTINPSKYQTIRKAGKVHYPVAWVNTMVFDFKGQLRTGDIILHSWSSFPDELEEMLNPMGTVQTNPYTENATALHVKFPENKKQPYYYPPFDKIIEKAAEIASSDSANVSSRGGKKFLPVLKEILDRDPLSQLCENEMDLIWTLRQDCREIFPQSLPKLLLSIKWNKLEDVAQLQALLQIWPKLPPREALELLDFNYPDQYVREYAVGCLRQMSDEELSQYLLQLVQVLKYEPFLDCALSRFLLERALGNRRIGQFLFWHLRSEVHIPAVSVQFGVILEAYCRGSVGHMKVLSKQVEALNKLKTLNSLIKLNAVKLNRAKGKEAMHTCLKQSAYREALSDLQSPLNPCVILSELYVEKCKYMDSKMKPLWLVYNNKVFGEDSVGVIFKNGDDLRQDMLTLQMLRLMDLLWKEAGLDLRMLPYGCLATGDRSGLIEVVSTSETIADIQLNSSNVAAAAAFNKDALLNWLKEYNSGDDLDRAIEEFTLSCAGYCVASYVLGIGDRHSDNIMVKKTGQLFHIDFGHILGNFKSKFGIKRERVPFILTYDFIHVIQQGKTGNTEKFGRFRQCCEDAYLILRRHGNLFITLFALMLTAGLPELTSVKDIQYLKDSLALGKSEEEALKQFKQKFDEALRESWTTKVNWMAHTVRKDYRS
T3 sequence (P27986 whole entry partner): as the sequence (P27986 whole entry partner) above
T1 sequence (P42336 whole entry): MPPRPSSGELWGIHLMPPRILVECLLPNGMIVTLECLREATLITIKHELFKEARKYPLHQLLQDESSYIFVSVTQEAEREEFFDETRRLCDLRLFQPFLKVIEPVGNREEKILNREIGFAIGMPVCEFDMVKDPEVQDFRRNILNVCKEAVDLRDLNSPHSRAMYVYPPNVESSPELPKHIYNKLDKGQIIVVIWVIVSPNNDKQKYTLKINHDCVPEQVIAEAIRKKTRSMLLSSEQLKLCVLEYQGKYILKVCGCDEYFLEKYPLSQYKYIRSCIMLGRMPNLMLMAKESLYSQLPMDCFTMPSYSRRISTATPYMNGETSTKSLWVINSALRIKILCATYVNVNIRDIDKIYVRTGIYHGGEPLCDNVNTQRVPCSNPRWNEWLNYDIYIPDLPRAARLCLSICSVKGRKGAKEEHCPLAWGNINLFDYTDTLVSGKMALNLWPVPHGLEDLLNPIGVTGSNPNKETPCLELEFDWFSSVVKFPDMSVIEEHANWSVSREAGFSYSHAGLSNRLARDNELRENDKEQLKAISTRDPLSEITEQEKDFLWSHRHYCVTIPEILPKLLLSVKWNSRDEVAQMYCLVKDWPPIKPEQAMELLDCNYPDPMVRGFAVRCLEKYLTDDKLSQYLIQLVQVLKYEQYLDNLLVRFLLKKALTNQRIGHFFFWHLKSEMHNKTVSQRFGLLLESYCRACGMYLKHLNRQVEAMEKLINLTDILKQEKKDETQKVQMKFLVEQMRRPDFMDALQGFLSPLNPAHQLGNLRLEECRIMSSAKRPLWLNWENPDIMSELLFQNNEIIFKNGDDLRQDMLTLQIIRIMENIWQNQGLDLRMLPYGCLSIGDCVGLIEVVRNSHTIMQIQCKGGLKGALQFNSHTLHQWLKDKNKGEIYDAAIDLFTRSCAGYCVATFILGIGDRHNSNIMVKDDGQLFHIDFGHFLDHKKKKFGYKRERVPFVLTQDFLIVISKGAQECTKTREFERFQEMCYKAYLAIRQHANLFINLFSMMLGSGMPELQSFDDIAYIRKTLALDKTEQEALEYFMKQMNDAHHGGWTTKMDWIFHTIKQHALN
T1 sequence (P27986 whole entry partner): as the sequence (P27986 whole entry partner) above
T4 sequence (P48736 whole entry): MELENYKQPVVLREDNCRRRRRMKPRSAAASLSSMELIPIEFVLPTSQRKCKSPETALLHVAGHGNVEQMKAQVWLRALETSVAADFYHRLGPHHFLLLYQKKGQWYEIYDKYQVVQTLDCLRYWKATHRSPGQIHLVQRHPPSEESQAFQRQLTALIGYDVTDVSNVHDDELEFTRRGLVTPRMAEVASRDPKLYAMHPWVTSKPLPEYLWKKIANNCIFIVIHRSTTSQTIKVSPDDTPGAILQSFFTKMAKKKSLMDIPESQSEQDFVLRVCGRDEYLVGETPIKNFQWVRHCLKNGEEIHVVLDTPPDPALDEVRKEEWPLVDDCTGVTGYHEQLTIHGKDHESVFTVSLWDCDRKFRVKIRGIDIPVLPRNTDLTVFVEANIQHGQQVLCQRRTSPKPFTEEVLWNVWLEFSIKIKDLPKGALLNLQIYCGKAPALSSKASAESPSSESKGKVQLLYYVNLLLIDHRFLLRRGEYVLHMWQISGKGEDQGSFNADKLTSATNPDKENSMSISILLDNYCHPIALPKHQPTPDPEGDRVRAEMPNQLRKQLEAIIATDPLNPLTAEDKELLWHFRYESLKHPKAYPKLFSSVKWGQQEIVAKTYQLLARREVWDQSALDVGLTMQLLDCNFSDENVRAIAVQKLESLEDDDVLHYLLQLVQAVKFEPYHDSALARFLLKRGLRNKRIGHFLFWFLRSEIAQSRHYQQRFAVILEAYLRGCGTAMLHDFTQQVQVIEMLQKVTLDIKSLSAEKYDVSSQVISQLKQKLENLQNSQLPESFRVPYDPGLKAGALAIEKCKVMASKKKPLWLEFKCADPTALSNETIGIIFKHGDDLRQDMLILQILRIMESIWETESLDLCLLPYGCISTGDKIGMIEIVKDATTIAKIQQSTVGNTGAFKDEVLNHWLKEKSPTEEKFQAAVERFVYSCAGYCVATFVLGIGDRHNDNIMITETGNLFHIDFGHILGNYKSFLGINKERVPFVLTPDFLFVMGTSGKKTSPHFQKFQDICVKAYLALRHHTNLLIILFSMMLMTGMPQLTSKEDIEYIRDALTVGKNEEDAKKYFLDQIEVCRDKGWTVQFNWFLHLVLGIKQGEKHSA

The EC50 is the concentration needed to bring the measured effect to its halfway point. As usually defined, the remaining activity is the share of the control activity or signal that is left under treatment. `O=c1c2ccccc2nc(CSc2ncnc3[nH]cnc23)n1-c1ccccc1` [Compound D-121, 3-phenyl-2-(9H-purin-6-ylsulfanylmethyl)-3H-quinazolin-4-one]: the “Alpha/Delta Ratio” value is listed as 158 on PI3Kα [1] and >211 on PI3Kα [7]. Moreover, the 50% effective concentration (EC50) in data set [2] turned out to be 1400 nM. For the same compound, the IC50 is 480 nM at PI3Kδ [3] and 900 nM against PI3Kδ [4]. The “Beta/Delta Ratio” value was 138 on PI3Kβ [5] and >211 at PI3Kβ [6]. At PI3Kγ, the “Gamma/Delta Ratio” value came out at 136. The figures for the remaining activity at 100 µM at PI3Kβ [6] and at PI3Kα [7] were 70% and 69%, respectively.

A word on the melting point: it is the temperature of the solid-liquid transition. `O=c1c2cc(O)ccc2nc(CSc2ncnc3[nH]cnc23)n1-c1ccccc1Cl` [Compound D-024, 3-(2-Chlorophenyl)-6-hydroxy-2-(9H-purin-6-ylsulfanylmethyl)-3H-quinazolin-4-one]: the melting point is 186 to 214 °C (dec.). This compound also registered an EC50 in the data set with human neutrophils of 2900 nM. For the same compound, the IC50 at PI3Kδ [3] is 2600 nM. Also, on PI3Kβ [6], the “Beta/Delta Ratio” value is >38 and the remaining activity at 100 µM was 76%. On PI3Kα [7], the “Alpha/Delta Ratio” value worked out at 38 and the IC50 is 100 µM.

The compound `O=c1c2cc(F)c(F)cc2nc(CSc2ncnc3[nH]cnc23)n1-c1ccccc1Cl` [Compound D-027, 3-(2-Chlorophenyl)-6,7-difluoro-2-(9H-purin-6-ylsulfanylmethyl)-3H-quinazolin-4-one] came in with a melting point of 207.8 °C. Besides, it took 2000 nM to reach a half-maximal effect in the data set on human neutrophils (EC50). For the same compound, the “Alpha/Delta Ratio” value at PI3Kα [1] is listed as 37. In addition, the EC50 in [2] is > 2000 nM. Further, the IC50 at PI3Kδ [3] was 600 nM. This compound showed an IC50 against PI3Kδ [4] of 4000 nM. Moreover, at PI3Kβ [5], the “Beta/Delta Ratio” value is recorded as 26 and the IC50 was 110 µM. For the same compound, at PI3Kγ, the “Gamma/Delta Ratio” value amounted to 15 and the IC50 is 60 µM. Further, at PI3Kβ [6], the “Beta/Delta Ratio” value was found to be 97 and the IC50 was found to be 58 µM. In addition, at PI3Kα [7], the “Alpha/Delta Ratio” value was >169 and the remaining activity at 100 µM stood at 59%.

Consider `Nc1ncnc2c1ncn2Cc1nc2cccc(Cl)c2c(=O)n1-c1ccccc1F` [Compound D-012, 2-(6-Aminopurin-9-ylmethyl)-5-chloro-3-(2-fluorophenyl)-3H-quinazolin-4-one], for which the melting point was 295.6 to 295.8 °C (dec.). The EC50 with human neutrophils came out at 300 nM. Moreover, the “Alpha/Delta Ratio” value at PI3Kα [1] is on record as 107. Also, the half-maximal effective concentration (EC50) in [2] was 300 ± 200 nM. Also, at PI3Kδ [3], the IC50 stood at 170 nM. The compound further returned an IC50 against PI3Kδ [4] of 1300 ± 400 nM. Besides, on PI3Kβ [5], the “Beta/Delta Ratio” value was 83 and the IC50 was found to be 108 ± 4 µM. Further, the “Gamma/Delta Ratio” value on PI3Kγ amounted to 38. At PI3Kβ [6], the “Beta/Delta Ratio” value stood at 65 and the IC50 worked out at 11 µM. On PI3Kα [7], the “Alpha/Delta Ratio” value was >588 and the remaining activity at 100 µM stood at 69%.

As to `Cc1cccc2nc(CSc3ncnc4[nH]cnc34)n(-c3c(Cl)cccc3Cl)c(=O)c12` [Compound D-034, 3-(2,6-dichlorophenyl)-5-methyl-2-(9H-purin-6-ylsulfanylmethyl)-3H-quinazolin-4-one], the “Alpha/Delta Ratio” value was determined as 153 at PI3Kα [1] and 131 on PI3Kα [7]. The EC50 in data set [2] was 600 ± 400 nM. Further, the IC50 on PI3Kδ [3] amounted to 150 nM; on PI3Kδ [4], 1200 ± 300 nM; at PI3Kβ [5] it was 103 ± 4 µM; at PI3Kγ, 34 ± 1 µM; on PI3Kβ [6], 11 µM; on PI3Kα [7], 19 µM. Besides, the “Beta/Delta Ratio” value came out at 85 on PI3Kβ [5] and 74 on PI3Kβ [6]. Besides, at PI3Kγ, the “Gamma/Delta Ratio” value stood at 28.

`O=c1c2cc(F)ccc2nc(CSc2ncnc3[nH]cnc23)n1-c1ccccc1Cl` [Compound D-028, 3-(2-Chlorophenyl)-6-fluoro-2-(9H-purin-6-ylsulfanylmethyl)-3H-quinazolin-4-one] came in with a melting point of 232.8 to 233 °C. In the data set on human neutrophils, this compound came in with an EC50 of 1000 nM. Also, the “Alpha/Delta Ratio” value at PI3Kα [1] is 125. The EC50 in [2] came out at 400 ± 200 nM. Moreover, on PI3Kδ [3], the IC50 was 180 nM. In addition, at PI3Kδ [4], the IC50 worked out at 1600 nM. In addition, at PI3Kβ [5], the “Beta/Delta Ratio” value came out at 101. Moreover, at PI3Kγ, the “Gamma/Delta Ratio” value turned out to be 18 and the IC50 was determined as 29 µM. Besides, on PI3Kβ [6], the “Beta/Delta Ratio” value is reported as 69 and the IC50 was determined as 13 µM. Further, on PI3Kα [7], the “Alpha/Delta Ratio” value is >556 and the remaining activity at 100 µM stood at 67%.

For `Nc1ncnc2c1ncn2Cc1nc2c(Cl)cccc2c(=O)n1-c1ccccc1Cl` [Compound D-008, 2-(6-Aminopurin-9-ylmethyl)-8-chloro-3-(2-chlorophenyl)-3H-quinazolin-4-one], the melting point was in the range of 273.3 to 273.5 °C. In addition, the EC50 in [2] came to 1000 nM. In addition, the IC50 on PI3Kδ [3] was determined as 1200 nM. Further, at PI3Kβ [6], the “Beta/Delta Ratio” value is 57 and the IC50 is 68 µM. For the same compound, on PI3Kα [7], the “Alpha/Delta Ratio” value is >85 and the remaining activity at 100 µM was determined as 82%.

The compound `CCOC(=O)Cn1c(CSc2ncnc3[nH]cnc23)nc2cccc(F)c2c1=O` [Compound D-045, [5-fluoro-4-oxo-2-(9H-purin-6-ylsulfanylmethyl)-4H-quinazolin-3-yl]acetic acid ethyl ester] came in with a 50% effective concentration (EC50) in the data set on human neutrophils of 9000 nM. The IC50 on PI3Kδ [3] amounted to 7600 nM. Besides, on PI3Kβ [6], the “Beta/Delta Ratio” value is listed as >13 and the remaining activity at 100 µM is 74%. At PI3Kα [7], the “Alpha/Delta Ratio” value is listed as >13 and the remaining activity at 100 µM was determined as 98%.

These data come from patent US20200061062A1, “INHIBITORS OF HUMAN PHOSPHATIDYLINOSITOL 3-KINASE DELTA” (ICOS Corporation, priority 2000, published 2020).
